Results taken from patent publication US20040123344A1, “Novel gene encoding an f-box protein which regulates leaf longevity in arabidopsis thaliana and mutant gene thereof” (priority 2000, published 2004).

Legend:
ore9 mutant leaves = assay type: in vivo, Arabidopsis thaliana; conditions: detached leaves at 12 DAE, 50 μM ABA or 50 μM MeJA in MES buffer pH 5.8, or 4.5 μM ethylene gas, three days at 22° C., continuous light
Procedure: (§1) In order to measure photosynthetic activities, a method of Oh S. A. et al., (Oh S. A. et al., Plant Mol. Biol. 30: 939, 1996) was used. First, the respective leaves were dark-treated for 15 minutes and measured for fluorescence of chlorophylls using a plant efficiency analyzer. The photosynthetic activity was expressed as photochemical efficiency of photosystemII (PSII) using a fluorescent property of chlorophylls. The photochemical efficiency was expressed as the ratio of maximum variable fluorescence (Fv) to maximum value of fluorescence (Fm) (Fv/Fm). As the ratio is increased, the photosynthesis efficiency improves.
(§2) Although senescence of leaves is known as a genetic programmed process, the initiation and progress of senescence can be changed by phytohormones, such as abscisic acid (ABA), methyl jasmonate (MeJA) and ethylene, that are plant growth inhibitory substances (Hensel et al., Plant Cell 5:553, 1993; Weidhase et al., Physiol. Plant 69:161, 1987; and Zeevaart et al, Annu. Rev. Plant Physiol. Plant Mol. Biol. 39:439, 1998). Thus, in this experiment, a change in leaf longevity of the ore9 mutant according to treatment with phytohormones was examined by measuring changes in photosynthetic activity and chlorophyll content. Detached leaves were floated in 3 mM 2-[N-morpholino]-ethanesulfonic acid (MES) buffer, pH 5.8, containing 50 μM ABA or 50 μM MeJA, while continuously being exposed to light. Treatment with ethylene was carried out by cultivation in a glass box containing 4.5 μM ethylene gas. The treatments with phytohormones as described above were carried out for three days at 22° C. with continuous exposure to light. At this time, 12 independent leaves at 12 DAE were used as samples, and the chlorophyll content and the photosynthetic activity were measured in the same manner as in Example 2.

[1] = tested on: wild type Arabidopsis thaliana leaves; experiment: Phytohormone treatment of detached leaves, photosynthetic activity (Fv/Fm of PSII); assay type: in vivo; conditions: detached leaves at 12 DAE, 50 μM ABA or 50 μM MeJA in MES buffer pH 5.8, or 4.5 μM ethylene gas, three days at 22° C., continuous light
Procedure: as §1, §2

[2] = biological target: T1, GAL4-BD fusion of ORE9 (50-693), expressed from pGBT9-ORE9 (50-693) [2] (Arabidopsis thaliana); experiment: yeast two-hybrid assay
T1 construct: Yeast two-hybrid bait expressed in yeast HF7c; also called ORE9 derivative from which the F-box region was removed

[3] = biological target: T2, GAL4-BD fusion of ORE9 (1-49), expressed from pGBT9-ORE9 (1-49) [1] (Arabidopsis thaliana); experiment: yeast two-hybrid assay, combination [1+4]
T2 construct: Yeast two-hybrid bait expressed in yeast HF7c; also called fragment containing only the F-box region of ORE9; pGBT-ORE9(1-49)[1]

[4] = biological target: T3, 35S-labeled ORE9 (50-693), in vitro translated (Arabidopsis thaliana, UniProt Q9SIM9 50-693); experiment: in vitro GST pull-down of 35S-labeled protein
T3 sequence: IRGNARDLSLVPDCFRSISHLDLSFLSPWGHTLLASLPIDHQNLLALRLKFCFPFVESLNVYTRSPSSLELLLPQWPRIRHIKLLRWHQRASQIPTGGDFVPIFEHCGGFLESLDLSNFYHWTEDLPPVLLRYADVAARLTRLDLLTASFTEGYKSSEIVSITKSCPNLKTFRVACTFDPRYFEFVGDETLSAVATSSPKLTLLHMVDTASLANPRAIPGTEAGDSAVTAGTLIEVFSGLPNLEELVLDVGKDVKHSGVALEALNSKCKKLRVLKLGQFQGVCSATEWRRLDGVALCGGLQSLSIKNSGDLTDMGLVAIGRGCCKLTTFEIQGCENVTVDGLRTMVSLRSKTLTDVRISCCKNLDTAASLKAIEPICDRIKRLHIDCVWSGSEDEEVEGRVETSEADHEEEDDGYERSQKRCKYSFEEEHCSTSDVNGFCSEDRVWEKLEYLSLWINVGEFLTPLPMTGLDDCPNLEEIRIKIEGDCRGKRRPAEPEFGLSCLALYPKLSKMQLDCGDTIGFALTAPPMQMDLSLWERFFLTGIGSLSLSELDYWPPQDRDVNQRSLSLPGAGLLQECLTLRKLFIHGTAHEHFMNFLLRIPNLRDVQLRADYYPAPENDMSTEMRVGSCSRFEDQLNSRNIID
Source text: In order to examine that ORE9 protein or derivatives thereof directly bind with ASK1, a GST-ASK1 fusion protein and a ³⁵S-labeled ORE9 protein produced by in vitro translation were subjected to in vitro binding assay. To obtain a glutathione S-transferase (GST) protein and a GST-ASK1 fusion protein, a vector pGEX (APBiotech, Co.) and a vector pGEX-ASK1 were constructed, which express the above proteins, respectively. Artificial sequences represented by SEQ ID NO: 14 and SEQ ID NO: 15 were used as PCR primers to amplify a gene encoding the ASK1 fragment. The resulting PCR product was digested with EcoRI and NcoI restriction enzymes, and inserted into the restriction enzyme sites of the pGEX vector. Escherichia coli BL21(DE3) pLysS was transformed with the resulting two vectors, and GST and GST-ASK1 fusion proteins were expressed. The GST and GST-ASK1 fusion proteins were purified by chromatography with glutathione-Sepharose 4B beads. The purified proteins was subjected to electrophoresis with SDS-polyacryamide gets, dyed with Coomassie blue, and measured for their amount. […]
The proteins were quantitatively analyzed with SDS-PAGE and BAS radioanalytic imaging system (Japan). […]

Row | Molecule | photosynthetic ability maintained after treatment (ore9 mutant leaves) | photosynthetic activity after treatment [1] | also measured
1 | CC1=CC(=O)CC(C)(C)[C@@]1(O)/C=C/C(C)=C\C(=O)O [ABA, abscisic acid] | 93% | 65% | 
2 | CC/C=C\CC1C(=O)CCC1CC(=O)OC (stereo not drawn) [MeJA, methyl jasmonate] | 70% | 38% | 
3 | C=C [ethylene] | 82% | 54% | 
4 | GAL4-AD fusion of ASK1(1-160), expressed from pGAD424-ASK1(1-160) [3] (other, Arabidopsis, UniProt Q39255 1-160, looked up, not shown: large carriers, range 1-160; also called Arabidopsis SKP1 homolog 1; pGAD-ASK1(1-160)[3]) MSAKKIVLKSSDGESFEVEEAVALESQTIAHMVEDDCVDNGVPLPNVTSKILAKVIEYCKRHVEAAASKAEAVEGAATSDDDLKAWDADFMKIDQATLFELILAANYLNIKNLLDLTCQTVADMIKGKTPEEIRTTFNIKNDFTPEEEEEVRRENQWAFE |  |  | binding result [2]: no binding
5 | GAL4-AD fusion of ASK2(1-172), expressed from pGAD424-ASK2(1-172) [4] (other, Arabidopsis, UniProt Q9FHW7 1-171, looked up, not shown: large carriers, range 1-172; Yeast two-hybrid prey; also called Arabidopsis SKP1 homolog 2) MSTVRKITLKSSDGENFEIDEAVALESQTIKHMIEDDCTDNGIPLPNVTSKILSKVIEYCKRHVEAAEKSETTADAAAATTTTTVASGSSDEDLKTWDSEFIKVDQGTLFDLILAANYLNIKGLLDLTCQTVADMIKGKTPEEIRKTFNIKNDFTPEEEEEVRRENQWAFE |  |  | binding result [3]: no binding
6 | GST-ASK1 fusion protein (other, Arabidopsis, UniProt Q39255 1-160, looked up, not shown: a dimerising Fc or GST, also called GSK-ASK1) MSAKKIVLKSSDGESFEVEEAVALESQTIAHMVEDDCVDNGVPLPNVTSKILAKVIEYCKRHVEAAASKAEAVEGAATSDDDLKAWDADFMKIDQATLFELILAANYLNIKNLLDLTCQTVADMIKGKTPEEIRTTFNIKNDFTPEEEEEVRRENQWAFE |  |  | binding result [4]: no binding
